Reference: patent publication EP0269017B1, “Therapeutic combination of free-radical scavenger or metabolic inhibitor and biologically active protein” (CETUS ONCOLOGY CORPORATION, priority 1986, dated 1988)
Like-named read-outs stand apart in the source and are kept apart here.

Legend:
Meth-A tumor cells [1] = assay: TNF mutein and aspirin in mice with Meth-A tumor (Example 4)
Description: Female Balb/c mice were treated by subcutaneous implantation of Meth-A tumor cells as described in Example 1. Five mice per group were employed. Treatment was initiated seven days after the implantation.
A protocol was employed wherein aspirin or the TNF mutein of Example 1 alone, or aspirin together with the TNF mutein, were administered intravenously. In the combination group, aspirin was administered daily for five days and each dose was followed 1-4 hours later by TNF. PBS was used as a control.
The headings are defined in the footnotes of Table I. TABLE V

Meth-A tumor cells [2] = assay: TNF mutein with NDGA, aspirin or both in mice with Meth-A tumor (Example 5); conditions: no TNF, aspirin 30 mg/kg i.v. and/or NDGA 15.6 mg/kg i.p. every third day 3 times; for △TW: day 14
Description: Female Balb/c mice were treated by subcutaneous implantation of Meth-A tumor cells as described in Example 1.
Details of the protocols are in the footnotes of Table VI. PBS was used as a control. Results were evaluated 14 days after initiation of treatment. The headings are defined in the footnotes of Table I. TABLE VI

[3] = test system: methylcholanthrene-induced murine fibrosarcoma (Meth-A); assay type: in vivo, Female Balb/c mice; conditions: uric acid 25 mg/kg alone, i.v. every third day three times
From the text: Female Balb/c mice (Charles River Breeding Laboratories, Inc., Wilmington, MA) that were all 6-8 weeks old were employed in the in vivo tests. Animals were weight matched at 20 ± 3 g, randomized at five per cage, and ear-notched. All animals were held in quarantine observation for seven days after arrival, maintained in microisolator cages (Lab Products, Inc.), and fed standard laboratory diets and drinking water ad lib.
A mutein of human TNF-α having the first eight amino acids deleted from the N-terminus was prepared as described In U.S. Patent No. 4,677,064 Issued June 30, 1987 and Wang et al., Science (1985) 228:149-153. Briefly, TNF was induced from HL-60 cells and purified and sequenced. Then an intronless sequence encoding human TNF was prepared by producing enriched mRNA, constructing a cDNA library, selecting a probe and probing the library to recover the sequence. Then an ATG start codon was introduced immediately preceding the GTC sequence encoding N-terminal valine of the mature protein by site-directed mutagenesis. Clones were selected and strands ligated into expression vectors to obtain prokaryotic expression of the mutein. […]
The uric acid dose was slightly below the maximum concentration attainable without decreasing animal weight, determined in a preliminary toxicity study, and was given immediately prior to the TNF inoculation. […]

Meth-A tumor cells [4] = assay type: in vivo, Female Balb/c mice; conditions: uric acid 25 mg/kg alone, i.v. once daily for five days
Description: (§1) Female Balb/c mice were implanted subcutaneously with Meth-A tumor cells as described in Example 1.
An IL-2 mutein, designated des-ala₁-IL2-ser125 (with no alanine at position 1 of the mature IL-2 molecule and a serine at position 125 of the mature IL-2 molecule), was prepared by the method described in U.S. Patent No. 4,518,584, supra, isolated from refractile bodies in accordance with the procedure described in EP-A-0 206 828, published December 30, 1986, and formulated as described in U.S. Patent No. 4,604,377 in sodium dodecyl sulfate.
Table IX indicates the results obtained when the IL-2 mutein described herein alone, uric acid alone, and various combination injections of the IL-2 mutein and uric acid were administered intravenously to five mice per group (2-3 repeats) beginning seven days after tumor implantation and once daily for five days, with the uric acid being administered immediately prior to (about 10 minutes) the IL-2 administration when both were administered. Final measurements were made on day 14. The excipient control was injected with PBS. The uric acid doses were all 25 mg/kg of mice weight.

Meth-A tumor cells [5] = assay: TNF mutein and BSO in mice with Meth-A tumor (Example 3); assay type: in vivo, Female Balb/c mice; conditions: BSO 1.25 g/kg alone, i.p. twice daily for ten days
Description: Female Balb/c mice were implanted subcutaneously with Meth-A tumor cells as described in Example 1. Treatment was initiated seven days after the implantation.
A protocol was employed wherein BSO or the TNF mutein of Example 1 alone, or BSO together with the TNF mutein, were administered. BSO was administered intraperitonally and TNF intravenously. The BSO was started 24 hours prior to TNF administration twice daily (6-8 hours between doses) for ten days and TNF was given with the second BSO dose every third day for three times. BSO excipient was used as a volume control in the TNF alone groups. PBS was used as a control. The protocol is illustrated below: [formula]
Table III illustrates the results of this study, with the headings defined in the footnotes to Table II. The numbers in parentheses indicate the results from a repeat of the experiment.

[6] = Smith et al., cited from earlier work
Meth-A tumor cells [7] = assay: TNF mutein and vitamin C in mice with Meth-A tumor (Example 2); assay type: in vivo, Female Balb/c mice; conditions: for % Control △BW / Cures (△TW=0, or no visible tumor after 21 days from start of treatment) / Deaths / % Control △TW: i.v. every third day for three injections; for % Control △BW / % Control △TW: day 14
From the text: as §1

[8] = aspirin 30 mg/kg alone, i.v., 14 days after treatment began
[9] = Vit.C 7 mg/kg, TNF 125 µg/kg where given
[10] = Vit.C 35 mg/kg, TNF 125 µg/kg where given
[11] = Vit.C 70 mg/kg, TNF 125 µg/kg where given

## CC(=O)Oc1ccccc1C(=O)O [Aspirin]
Meth-A tumor cells [1]; aspirin 30 mg/kg alone, i.v.
  Cures: 0/5
  Deaths: 0/5
Meth-A tumor cells [1]; [8]
  △BW: 1.34
  △TW: 66.6
Meth-A tumor cells [1]; aspirin 30 mg/kg, single dose or once a day for five days
  toxicity of aspirin alone: non-toxic
Meth-A tumor cells [2]
  Cures: 0/5
  △TW: 60.3
Meth-A tumor cells [2]; NDGA cell adds (1 tumor death d. 14), aspirin + NDGA cell adds (d. 5)
  Deaths: 0/5

## O=c1[nH]c(=O)c2[nH]c(=O)[nH]c2[nH]1 [Uric acid, uric acid]
[3]
  Cures (△TW=0, or no visible tumor after 21 days from start of treatment): 0/14
  △TW (ratio of mean tumor volume at 14 days to start of treatment): 51.7 ± 17.7
Meth-A tumor cells [4]
  Cures: 0/5
Meth-A tumor cells [4]; day 14
  △TW: 42.3

## CCCCS(=N)(=O)CCC(N)C(=O)O (stereo not drawn) [BSO, Buthionine Sulphoximine]
Meth-A tumor cells [5]
  Cures (no palpable tumor on day 14): 0/10
  Deaths: 0/10
Meth-A tumor cells [5]; mean values
  △TW: 29.8
Meth-A tumor cells [5]; mean values of two experiments
  △BW: 1.19
[6]; 400-800 mg/kg of BSO orally every eight hours, fifteen doses
  toxicity: toxic
[6]; fifteen doses of 100 mg/kg/dose of BSO orally every eight hours, Proceedings of AACR, 28 (March 1987), p. 440
  toxicity: relatively non-toxic

## O=C1O[C@H]([C@@H](O)CO)C(O)=C1O [Vit.C, Ascorbic Acid]
Meth-A tumor cells [7]; Vit.C 7 mg/kg, TNF 125 µg/kg immediately after where given
  % Control △BW: 92%
Meth-A tumor cells [7]; [9]
  Cures (△TW=0, or no visible tumor after 21 days from start of treatment): 0/5
  Deaths: 0/5
  % Control △TW: 76%
Meth-A tumor cells [7]; [10]
  Cures (△TW=0, or no visible tumor after 21 days from start of treatment): 0/5
  Deaths: 0/5
  % Control △BW: 100%
  % Control △TW: 88%
Meth-A tumor cells [7]; [11]
  Cures (△TW=0, or no visible tumor after 21 days from start of treatment): 0/5
  Deaths: 0/5
  % Control △BW: 96%
  % Control △TW: 74%
Meth-A tumor cells [7]; at the three doses tested (7, 35, 70 mg/kg)
  toxicity of vitamin C alone: non-toxic

## CC(Cc1ccc(O)c(O)c1)C(C)Cc1ccc(O)c(O)c1 (stereo not drawn) [NDGA, nordihydroguaiaretic acid (4,4'-[2,3-dimethyl-1,4-butanediyl]-bis[1,2-benzenediol])]
Meth-A tumor cells [2]
  Cures: 0/5
  △TW: 50.8
